The source of these data is ChEMBL document CHEMBL4177748, “Synthesis, structure-activity relationships, and mechanistic studies of 5-arylazo-tropolone derivatives as novel xanthine oxidase (XO) inhibitors” (Bioorg Med Chem, 2018).

This assay concerns the target Xanthine dehydrogenase/oxidase (Bos taurus, UniProt P80457). Description: Inhibition of bovine milk xanthine oxidase using xanthine as substrate pretreated for 15 mins followed by substrate addition measured after 8 mins.

Xanthine dehydrogenase/oxidase, sequence (P80457 whole entry): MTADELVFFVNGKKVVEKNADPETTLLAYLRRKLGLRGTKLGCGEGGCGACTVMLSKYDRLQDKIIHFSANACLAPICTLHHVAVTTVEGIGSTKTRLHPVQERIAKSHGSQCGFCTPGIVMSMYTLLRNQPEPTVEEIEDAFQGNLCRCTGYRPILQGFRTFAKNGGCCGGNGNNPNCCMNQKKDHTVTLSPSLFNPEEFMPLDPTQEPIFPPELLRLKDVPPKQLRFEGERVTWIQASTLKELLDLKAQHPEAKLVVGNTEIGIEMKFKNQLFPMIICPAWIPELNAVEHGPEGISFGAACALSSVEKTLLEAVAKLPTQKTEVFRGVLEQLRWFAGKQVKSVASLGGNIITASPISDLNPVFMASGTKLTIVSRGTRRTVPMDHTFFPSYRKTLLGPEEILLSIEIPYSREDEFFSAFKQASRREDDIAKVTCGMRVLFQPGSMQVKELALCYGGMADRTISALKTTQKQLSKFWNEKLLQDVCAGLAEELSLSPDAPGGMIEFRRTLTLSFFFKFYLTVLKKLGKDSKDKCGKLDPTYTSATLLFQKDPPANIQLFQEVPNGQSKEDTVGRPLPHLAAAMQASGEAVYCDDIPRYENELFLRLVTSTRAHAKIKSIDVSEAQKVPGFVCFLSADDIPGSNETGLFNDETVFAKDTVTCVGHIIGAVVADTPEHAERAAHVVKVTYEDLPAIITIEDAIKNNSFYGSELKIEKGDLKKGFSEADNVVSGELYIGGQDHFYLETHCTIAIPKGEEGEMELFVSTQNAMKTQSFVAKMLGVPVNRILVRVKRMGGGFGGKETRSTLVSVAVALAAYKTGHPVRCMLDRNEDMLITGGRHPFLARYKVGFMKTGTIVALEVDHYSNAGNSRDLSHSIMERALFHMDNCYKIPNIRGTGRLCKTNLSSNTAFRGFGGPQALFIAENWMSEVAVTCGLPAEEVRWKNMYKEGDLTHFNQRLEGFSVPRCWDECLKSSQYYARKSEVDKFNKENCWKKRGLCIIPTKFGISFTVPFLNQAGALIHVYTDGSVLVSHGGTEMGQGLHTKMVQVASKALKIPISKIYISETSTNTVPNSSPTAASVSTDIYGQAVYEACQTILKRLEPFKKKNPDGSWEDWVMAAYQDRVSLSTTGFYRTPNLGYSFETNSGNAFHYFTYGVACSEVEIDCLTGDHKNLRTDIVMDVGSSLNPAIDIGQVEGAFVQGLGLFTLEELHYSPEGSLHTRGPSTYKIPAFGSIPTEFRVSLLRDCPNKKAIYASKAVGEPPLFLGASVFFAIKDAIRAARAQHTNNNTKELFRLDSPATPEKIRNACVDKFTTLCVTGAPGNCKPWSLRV

What is called IC50 is the concentration needed to halve the response being measured. `O=c1ccc(/N=N/c2cccc(Cl)c2)ccc1O`: the IC50 (read-out: IC50) turned out to be 17 µM.

For `COc1ccc(/N=N/c2cc(C(F)(F)F)cc(C(F)(F)F)c2)ccc1=O`, the half-inhibitory concentration (IC50) result is “Not Active”.

As to `O=c1ccc(/N=N/c2cccc(I)c2)ccc1O`, the IC50 entry is recorded as “Not Active”.

In the case of `O=c1ccc(/N=N/c2ccc(F)cc2)ccc1O`, the concentration for half-maximal inhibition (IC50) entry is on record as “Not Active”.

As to `O=c1ccc(/N=N/c2cccc(F)c2)ccc1O`, the concentration for half-maximal inhibition (IC50) (read-out: IC50) was found to be 8.9 µM.

On to `O=c1ccc(/N=N/c2cccc(Br)c2)ccc1O`, for which the IC50 result is given as “Not Active”.

For `COc1cc(/N=N/c2ccc(O)c(=O)cc2)cc(OC)c1OC`, for the setting “read-out: IC50”, the IC50 turned out to be 57 µM.

Take `COC(=O)c1cccc(/N=N/c2ccc(O)c(=O)cc2)c1`: the IC50 (read-out: IC50) was 80 µM.

In the case of `Cc1ccc(Br)cc1/N=N/c1ccc(O)c(=O)cc1`, the concentration for half-maximal inhibition (IC50) result is reported as “Not Active”.

In the case of `CCOC(=O)c1ccc(/N=N/c2ccc(O)c(=O)cc2)cc1`, the half-inhibitory concentration (IC50) entry is given as “Not Active”.

Regarding `O=c1ccc(/N=N/c2cccc(C(F)(F)F)c2)ccc1O`, the concentration for half-maximal inhibition (IC50) (read-out: IC50) was determined as 7.4 µM.

For `Cc1c(/N=N/c2ccc(O)c(=O)cc2)cccc1[N+](=O)[O-]`, under “read-out: IC50”, the concentration for half-maximal inhibition (IC50) stood at 23 µM.

For the compound `Cc1cc(C)cc(/N=N/c2ccc(O)c(=O)cc2)c1`, the 50% inhibitory concentration (IC50) result was “Not Active”.

Turning to `COc1cccc(/N=N/c2ccc(O)c(=O)cc2)c1`, for the setting “read-out: IC50”, the IC50 came out at 45 µM.

Regarding `Cc1cccc(/N=N/c2ccc(O)c(=O)cc2)c1`, the half-maximal inhibitory concentration (IC50) entry is reported as “Not Active”.
